From patent US9434724B2, “Quinuclidines for modulating alpha 7 activity” (priority 2014, dated 2016)
Read-outs that look alike come from different tables or passages of the source.

Tests used:
[1] = Metabolic stability assay in rat liver microsomes (RLM); format: in vitro ADME; settings: 1 μM
Procedure, shortened: (§1)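 In Protocol 1, compound was 1 μM final with NADPH at 37 °C, sampled at 0–45 min. In Protocol 2, 1.5 μM compound with 0.75 mg/mL microsomes (pre-NADPH mix) in 0.1 M potassium phosphate, 1 mM EDTA, pH 7.4 was pre-incubated 10 min, then NADPH started the reaction. Both: LC-MS/MS % remaining versus time 0, half-life from single-phase exponential fit.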

CYP1A2 = CYP1A2 (Homo sapiens (Human), UniProt P05177); assay: Cytochrome P450 inhibition in human liver microsomes, CYP1A2
CYP2C19 [2] = target: T1, CYP2C19 (Homo sapiens (Human), UniProt P33261); settings: microsomes
Human plasma stability = format: in vitro ADME
Procedure, shortened: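 Compound remaining was quantified by LC-MS/MS as peak-area ratio to internal standard relative to time 0, with half-lives from single-exponential fits. Protocol 1 incubated 1 μM in heparinized human plasma (pH 7.4, 37° C) to 120 min; protocol 2 used 5 μM, pH 7.4–8.0, 37° C, n=2, to 120 min.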

[3] = target: rat brain nicotinic receptor (α7 NAChR) (Rattus norvegicus (Rat), UniProt Q05941); format: binding
[4] = Metabolic stability assay in human liver microsomes (HLM); format: in vitro ADME; settings: 1 μM
Procedure, shortened: as §1

CYP2C19 [5] = target: T1, CYP2C19; assay: Cytochrome P450 inhibition in human liver microsomes, CYP2C19; settings: read-out: 2C19 IC50, Protocol 2
CYP2C9 = CYP2C9 (Homo sapiens (Human), UniProt P11712); assay: Cytochrome P450 inhibition in human liver microsomes, CYP2C9; settings: read-out: 2C9 IC50, Protocol 2
CYP2D6 = CYP2D6 (Homo sapiens (Human), UniProt P10635); assay: Cytochrome P450 inhibition in human liver microsomes, CYP2D6; settings: read-out: 2D6 IC50, Protocol 2
CYP3A4 = CYP3A4 (Homo sapiens (Human), UniProt P08684); assay: Cytochrome P450 inhibition in human liver microsomes, CYP3A4
[6] = human, plasma, 2 h, 1 μM, pH 7.4
[7] = Protocol No. 2, rat liver microsomes
[8] = read-out: 3A4 IC50 (Midazolam), substrate midazolam, Protocol 2
[9] = Protocol No. 2, human liver microsomes
[10] = pH 7.4, Protocol No. 1, human plasma, 1 μM, 37° C., read-out: T1/2
[11] = read-out: 3A4 IC50 (Midazolam), substrate midazolam, Protocol 1
[12] = read-out: 3A4 IC50 (Testosterone), substrate testosterone, Protocol 1

Chain of CYP1A2 (P05177 whole entry): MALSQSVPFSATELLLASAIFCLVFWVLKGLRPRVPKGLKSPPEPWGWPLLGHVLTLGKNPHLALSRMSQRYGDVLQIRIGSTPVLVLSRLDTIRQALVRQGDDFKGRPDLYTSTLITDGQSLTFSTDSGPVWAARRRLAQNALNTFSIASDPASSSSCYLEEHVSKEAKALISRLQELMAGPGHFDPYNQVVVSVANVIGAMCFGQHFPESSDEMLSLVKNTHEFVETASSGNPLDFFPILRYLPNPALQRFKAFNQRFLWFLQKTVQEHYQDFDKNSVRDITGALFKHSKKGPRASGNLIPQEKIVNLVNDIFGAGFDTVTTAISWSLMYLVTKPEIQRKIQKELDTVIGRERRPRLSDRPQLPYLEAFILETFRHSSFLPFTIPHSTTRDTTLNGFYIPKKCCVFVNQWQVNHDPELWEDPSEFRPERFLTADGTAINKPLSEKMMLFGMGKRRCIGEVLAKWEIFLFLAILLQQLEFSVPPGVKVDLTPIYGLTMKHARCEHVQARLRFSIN
Chain of CYP3A4 (P08684 whole entry): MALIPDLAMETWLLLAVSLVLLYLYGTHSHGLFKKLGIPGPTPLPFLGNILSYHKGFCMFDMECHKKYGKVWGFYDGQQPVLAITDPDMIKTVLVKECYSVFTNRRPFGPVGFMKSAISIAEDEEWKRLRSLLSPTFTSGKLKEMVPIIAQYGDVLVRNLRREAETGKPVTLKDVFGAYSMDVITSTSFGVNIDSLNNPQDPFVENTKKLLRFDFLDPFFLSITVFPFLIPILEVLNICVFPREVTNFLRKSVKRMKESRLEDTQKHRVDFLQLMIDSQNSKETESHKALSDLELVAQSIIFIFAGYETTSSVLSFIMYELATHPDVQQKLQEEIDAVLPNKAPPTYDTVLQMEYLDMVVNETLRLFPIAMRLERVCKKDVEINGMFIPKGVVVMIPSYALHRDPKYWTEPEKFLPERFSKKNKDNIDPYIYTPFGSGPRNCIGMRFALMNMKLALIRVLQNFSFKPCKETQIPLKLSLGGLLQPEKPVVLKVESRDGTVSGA
Chain of CYP2D6 (P10635 whole entry): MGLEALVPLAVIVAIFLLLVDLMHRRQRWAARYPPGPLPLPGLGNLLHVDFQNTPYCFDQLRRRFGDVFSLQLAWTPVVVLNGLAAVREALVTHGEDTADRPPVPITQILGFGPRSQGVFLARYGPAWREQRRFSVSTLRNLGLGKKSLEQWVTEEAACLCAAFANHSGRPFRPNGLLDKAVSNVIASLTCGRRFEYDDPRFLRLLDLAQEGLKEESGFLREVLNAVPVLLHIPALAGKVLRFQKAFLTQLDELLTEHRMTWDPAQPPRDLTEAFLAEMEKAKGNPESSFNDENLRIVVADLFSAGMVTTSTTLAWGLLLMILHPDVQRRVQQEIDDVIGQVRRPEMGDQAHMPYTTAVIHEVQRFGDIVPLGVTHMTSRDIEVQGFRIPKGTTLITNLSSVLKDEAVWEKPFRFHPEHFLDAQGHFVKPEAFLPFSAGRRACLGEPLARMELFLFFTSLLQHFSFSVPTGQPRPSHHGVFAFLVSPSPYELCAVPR
Chain of rat brain nicotinic receptor (α7 NAChR) (Q05941 23-502 limits assumed): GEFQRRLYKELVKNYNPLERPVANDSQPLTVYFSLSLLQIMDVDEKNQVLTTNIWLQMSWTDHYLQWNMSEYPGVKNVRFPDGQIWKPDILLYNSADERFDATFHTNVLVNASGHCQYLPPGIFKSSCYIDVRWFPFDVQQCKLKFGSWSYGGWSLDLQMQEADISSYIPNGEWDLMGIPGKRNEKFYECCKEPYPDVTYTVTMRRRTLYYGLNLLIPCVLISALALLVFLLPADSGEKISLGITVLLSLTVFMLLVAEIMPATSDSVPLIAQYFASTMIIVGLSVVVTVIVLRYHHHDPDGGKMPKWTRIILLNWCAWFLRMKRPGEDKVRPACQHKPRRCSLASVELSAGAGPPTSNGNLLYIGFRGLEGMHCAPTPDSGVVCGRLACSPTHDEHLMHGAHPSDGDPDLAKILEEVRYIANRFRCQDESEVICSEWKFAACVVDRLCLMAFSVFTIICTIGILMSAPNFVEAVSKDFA
T1 sequence (P33261 whole entry): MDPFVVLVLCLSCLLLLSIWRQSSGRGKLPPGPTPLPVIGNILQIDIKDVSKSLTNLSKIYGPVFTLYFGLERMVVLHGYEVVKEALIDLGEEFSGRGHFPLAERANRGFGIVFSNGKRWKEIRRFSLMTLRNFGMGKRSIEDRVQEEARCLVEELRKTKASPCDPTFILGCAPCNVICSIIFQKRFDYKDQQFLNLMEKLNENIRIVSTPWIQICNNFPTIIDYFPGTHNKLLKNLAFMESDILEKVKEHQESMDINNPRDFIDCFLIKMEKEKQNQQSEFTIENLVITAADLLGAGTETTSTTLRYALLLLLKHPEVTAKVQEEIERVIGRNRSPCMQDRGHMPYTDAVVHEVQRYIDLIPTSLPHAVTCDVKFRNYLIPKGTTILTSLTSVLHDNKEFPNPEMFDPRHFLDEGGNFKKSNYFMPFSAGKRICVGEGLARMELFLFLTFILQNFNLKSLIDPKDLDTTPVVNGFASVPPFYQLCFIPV
Chain of CYP2C9 (P11712 whole entry): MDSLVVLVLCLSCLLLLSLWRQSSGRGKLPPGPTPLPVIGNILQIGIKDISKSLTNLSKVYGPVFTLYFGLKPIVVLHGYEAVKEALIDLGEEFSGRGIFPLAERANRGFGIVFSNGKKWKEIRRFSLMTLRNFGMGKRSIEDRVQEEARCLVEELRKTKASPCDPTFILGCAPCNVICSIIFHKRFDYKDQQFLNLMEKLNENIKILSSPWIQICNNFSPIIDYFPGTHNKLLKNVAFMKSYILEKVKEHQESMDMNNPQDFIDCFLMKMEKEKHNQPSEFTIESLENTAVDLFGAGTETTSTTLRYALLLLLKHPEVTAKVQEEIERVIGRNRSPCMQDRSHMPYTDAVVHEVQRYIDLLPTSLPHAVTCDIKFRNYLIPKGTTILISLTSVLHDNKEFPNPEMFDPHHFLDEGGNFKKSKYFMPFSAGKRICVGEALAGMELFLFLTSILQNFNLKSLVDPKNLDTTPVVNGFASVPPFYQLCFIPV

Row | Compound | RLM ([1]; rat, microsomes, pH 7.4) [L/h/kg] | IC50 (CYP1A2; read-out: 1A2 IC50, Protocol 2) [µM] | IC50 (CYP2C19 [2]) [µM] | half-life at 1 μM (Human plasma stability; human, plasma, pH 7.4) [min] | IC50 [3] [µM] | Ki [3] [µM] | HLM ([4]; human, microsomes, pH 7.4) [L/h/kg] | IC50 (CYP2C19 [5]) [µM] | IC50 (CYP2C9) [µM] | IC50 (CYP2D6) [µM] | % Remaining @ 2 h (Human plasma stability; [6]) [%] | RLM [1, 7] [L/h/kg] | IC50 (CYP3A4; [8]) [µM] | HLM [4, 9] [L/h/kg] | other results
1 | O=C(OCC12CCN(CC1)CC2)c1c[nH]c2cccc(F)c12 [Compound 13, quinuclidin-4-ylmethyl 4-fluoro-1H-indole-3-carboxylate] | 5.6632 | > 10 | > 10 | 15 | 0.0141 | 0.0122 | <0.81648 |  |  |  |  |  |  |  | 
2 | O=C(OCC12CCN(CC1)CC2)c1c[nH]c2cc(O)ccc12 [Compound 14, quinuclidin-4-ylmethyl 6-hydroxy-1H-indole-3-carboxylate] | 1.555 | > 10 |  | 65.6 | 0.0619 | 0.0537 | <0.81648 | > 10 | > 10 | > 10 | 26 |  |  |  | 
3 | Cc1cccc2[nH]cc(C(=O)OCC34CCN(CC3)CC4)c12 [Compound 21, quinuclidin-4-ylmethyl 4-methyl-1H-indole-3-carboxylate] | 22.7464 | > 10 | > 10 | > 120 | 0.0588 | 0.0509 | <0.81648 |  |  |  | 83 |  |  |  | 
4 | O=C(OCC12CCN(CC1)CC2)c1c[nH]c2cc(Br)ccc12 [Compound 22, quinuclidin-4-ylmethyl 6-bromo-1H-indole-3-carboxylate] | 2.97016 | > 10 | > 10 | > 120 | 0.607 | 0.532 | <0.81648 |  |  |  | 58 |  |  |  | 
5 | O=C(OCC12CCN(CC1)CC2)c1c[nH]c2ccc(Br)cc12 [Compound 23, quinuclidin-4-ylmethyl 5-bromo-1H-indole-3-carboxylate] | 4.90089 | > 10 | > 10 | 52.9 | 0.424 | 0.374 | <0.81648 |  |  |  | 21 |  |  |  | 
6 | O=C(OCC12CCN(CC1)CC2)c1c[nH]c2cccc(Br)c12 [Compound 24, quinuclidin-4-ylmethyl 4-bromo-1H-indole-3-carboxylate] | 10.5341 | > 10 | > 10 | > 120 | 0.0581 | 0.0504 | <0.81648 |  |  |  | 89 |  |  |  | 
7 | O=C(OCC12CCN(CC1)CC2)c1c[nH]c2cc(Cl)ccc12 [Compound 26, quinuclidin-4-ylmethyl 6-chloro-1H-indole-3-carboxylate] | 4.50301 | > 10 | > 10 | > 120 | 0.451 | 0.398 | <0.81648 |  |  |  | 65 |  |  |  | 
8 | O=C(OCC12CCN(CC1)CC2)c1c[nH]c2ccc(Cl)cc12 [Compound 27, quinuclidin-4-ylmethyl 5-chloro-1H-indole-3-carboxylate] | 6.38574 | > 10 | > 10 |  | 0.282 | 0.247 | <0.81648 |  |  |  |  |  |  |  | 
9 | Cl.O=C(OCC12CCN(CC1)CC2)c1c[nH]c2cc(OC(F)(F)F)ccc12 [Compound 29, Quinuclidin-4-ylmethyl 6-(trifluoromethoxy)-1H-indole-3-carboxylate hydrochloride] |  | > 10 |  |  | 3.71 | 3.24 |  | > 10 | > 10 | > 10 |  | 1.555 | > 10 | <0.81648 | 
10 | Cl.O=C(OCC12CCN(CC1)CC2)c1c[nH]c2cc3c(cc12)OCCO3 [Compound 30, Quinuclidin-4-ylmethyl 2,3-dihydro-6H-[1,4]dioxino[2,3-f]indole-8-carboxylate hydrochloride] |  | > 10 |  |  | 0.0925 | 0.0811 |  | > 10 | > 10 | > 10 |  | 3.359 | > 10 | <0.81648 | % Remaining @ 2 h (Human plasma stability; Protocol No. 1, human plasma, 1 μM, 37° C.): 10%; half-life at 1 μM (Human plasma stability; [10]): 34.7 min
11 | Cl.O=C(OCC12CCN(CC1)CC2)c1c[nH]c2cc(OC(F)F)ccc12 [Compound 31, Quinuclidin-4-ylmethyl 6-(difluoromethoxy)-1H-indole-3-carboxylate hydrochloride] |  | > 10 |  |  | 0.788 | 0.689 |  | > 10 | > 10 | > 10 |  | 1.555 | > 10 | <0.81648 | 
12 | COc1cc2[nH]cc(C(=O)OCC34CCN(CC3)CC4)c2cc1F.Cl [Compound 32, Quinuclidin-4-ylmethyl 5-fluoro-6-methoxy-1H-indole-3-carboxylate hydrochloride] |  | > 10 |  |  | 0.306 | 0.267 |  | > 10 | > 10 | > 10 |  | 5.13 | > 10 | <0.81648 | half-life at 1 μM (Human plasma stability; [10]): > 120 min
13 | COc1cc(F)c2c(C(=O)OCC34CCN(CC3)CC4)c[nH]c2c1.Cl [Compound 33, Quinuclidin-4-ylmethyl 4-fluoro-6-methoxy-1H-indole-3-carboxylate hydrochloride] |  | > 10 |  |  | 0.0496 | 0.0432 |  | > 10 | > 10 | > 10 |  | 2.86 | > 10 | <0.81648 | half-life at 1 μM (Human plasma stability; [10]): 17.6 min
14 | O=C(OCC12CCN(CC1)CC2)c1c[nH]c2cccc(Cl)c12 [Compound 35, quinuclidin-4-ylmethyl 4-chloro-1H-indole-3-carboxylate] | 11.02 | > 10 | > 10 | > 120 | 0.0266 | 0.023 | <0.81648 |  |  |  | 56 |  |  |  | 
15 | COc1ccc2[nH]cc(C(=O)OCC34CCN(CC3)CC4)c2c1Cl [Compound 39, quinuclidin-4-ylmethyl 4-chloro-5-methoxy-1H-indole-3-carboxylate] |  |  |  |  | 0.0239 | 0.0206 |  |  |  |  |  |  |  |  | RLM ([1]; rat, microsomes): 15.741 L/h/kg; IC50 (CYP3A4; [11]): > 10 µM; IC50 (CYP3A4; [12]): > 10 µM; IC50 (CYP1A2; read-out: 1A2 IC50, Protocol 1): > 10 µM; IC50 (CYP2C19 [2]; 45 min): > 10 µM; % Remaining @ 2 h (Human plasma stability; human, plasma, 2 h, 5 μM): 14.05%; HLM ([4]; human, microsomes): 0.551 L/h/kg
16 | COc1ccc2[nH]cc(C(=O)OCC34CCN(CC3)CC4)c2c1OC [Compound 40, quinuclidin-4-ylmethyl 4,5-dimethoxy-1H-indole-3-carboxylate] |  |  |  |  | 0.0696 | 0.06 |  |  |  |  |  |  |  |  | RLM ([1]; rat, microsomes): 2.965 L/h/kg; IC50 (CYP3A4; [11]): > 10 µM; IC50 (CYP3A4; [12]): > 10 µM; IC50 (CYP1A2; read-out: 1A2 IC50, Protocol 1): > 10 µM; IC50 (CYP2C19 [2]; 45 min): > 10 µM; T1/2 (Human plasma stability; human, plasma): ∞; % Remaining @ 2 h (Human plasma stability; human, plasma, 2 h, 5 μM): 106.8%; HLM ([4]; human, microsomes): 0.46 L/h/kg
